The values that follow come from US12570639B2, “Tetrahydroquinoline derivative and medicinal use thereof” (Toray Industries, Inc., priority 2020, dated 2026).

Where a name gives a salt, the structure may show the parent alone.

The first assay concerns Human fibrosarcoma cells (HT-1080 cells). The assay can be described thus: In vitro inhibitory action against ferroptosis (Erastin-induced cell death, Cell Counting Kit-8). The format is cell-based. The following applies: evaluation concentration 10 μmol/L, Erastin 3 μmol/L, 24 hours. The procedure: The inhibitory action against ferroptosis of the tetrahydroquinoline derivative (I) or a pharmaceutically acceptable salt thereof was evaluated with Human fibrosarcoma cells (HT-1080 cells), by using, as an index, the inhibitory action against the cell death induced by treatment with a ferroptosis inducer, Erastin.
HT-1080 cells (ATCC) were cultured in a mixture (hereinafter referred to as vehicle) composed of DMEM/F12 (Thermo Fisher Scientific, Inc.), a final concentration of 10% fetal bovine serum (Thermo Fisher Scientific, Inc.), and a final concentration of 1% penicillin-streptomycin solution (Nacalai Tesque, Inc.). Cells were seeded into 96-well plates (Corning Inc.) at 5×10^4 cells/well and cultured overnight.
A test compound was dissolved in DMSO, and the resulting solution was diluted in the vehicle to a final concentration of 1% DMSO and then used. […] Thirty minutes after the addition of the test compound, Erastin (Cayman Chemical Co.) diluted in the vehicle at a final concentration of 3 μmol/L was added to wells. The wells added with the test compound and Erastin were grouped as “test compound,” and the wells added with no test compound and no Erastin were grouped as “background,” and the wells added with no test compound but with Erastin were grouped as “control.” Twenty-four hours after the addition of Erastin, 5 μL of Cell Counting Kit-8 (Dojindo Laboratories) was added to each well and incubated for 4 hours, and the absorbance at 450 nm was then measured for each well (N=2). […] Ferroptosis inhibition rate (%)=[1−{(Average absorbance value at 450 nm measured when a test compound is added)−(Average absorbance value at 450 nm measured in the background)}/{(Average absorbance value at 450 nm measured in the control)−(Average absorbance value at 450 nm measured in the background)}]×100 Equation 1
For the molecule `Cc1ccc2c(c1)CCC(c1ccc(C(N)=O)cc1)N2` (stereo not drawn) [Example 110, 4-(6-methyl-1,2,3,4-tetra-hydroquinolin-2-yl)benzamide], the “Ferroptosis inhibition rate (%)” value was 103.0%.
For the molecule `Cc1ccc2c(c1)CCC(c1ccc(C(N)=O)cc1)N2` (stereo not drawn) [Example 111, 4-(6-methyl-1,2,3,4-tetrahydroquinolin-2-yl)benzamide], the “Ferroptosis inhibition rate (%)” value stood at 98.91%.

Still in this assay, the particulars now being: evaluation concentration 25 μmol/L, Erastin 3 μmol/L, 24 hours.
Consider `Nc1ccc2c(c1)CCC(c1ccccc1)N2` (stereo not drawn) [Example 64, 2-phenyl-1,2,3,4-tetrahydroquinoline-6-amine dihydrochloride], for which the “Ferroptosis inhibition rate (%)” value amounted to 82.89%.
As to `CC(C)(C)CC(=O)Nc1ccc2c(c1)CCC(c1ccccc1)N2` (stereo not drawn) [Example 78, 3,3-dimethyl-N-(2-phenyl-1,2,3,4-tetrahydroquinolin-6-yl)butanamide], the “Ferroptosis inhibition rate (%)” value turned out to be 88.56%.

The same assay, now with this note: evaluation concentration 30 μmol/L, Erastin 3 μmol/L, 24 hours.
Regarding `CC(C)(O)c1ccc2c(c1)CCC(c1ccccc1)N2` (stereo not drawn) [Example 57, 2-(2-phenyl-1,2,3,4-tetrahydroquinolin-6-yl)propan-2-ol], the “Ferroptosis inhibition rate (%)” value came to 89.18%.
As to `c1ccc(C2CCc3cc(CN4CCOCC4)ccc3N2)cc1` (stereo not drawn) [Example 59, 4-((2-phenyl-1,2,3,4-tetrahydroquinolin-6-yl)methyl)morph-oline], the “Ferroptosis inhibition rate (%)” value is recorded as 76.73%.
The same measure, in the same setting: the figure for `c1ccc2c(c1)CCC(c1cnco1)N2` (stereo not drawn) [Example 65, 5-(1,2,3,4-tetrahydroquinolin-2-yl)oxazole] is 89.25%; for `Brc1ccc2c(c1)CCC(c1ccccc1)N2` (stereo not drawn) [Example 70, 6-bromo-2-phenyl-1,2,3,4-tetrahydroquinoline] it is 97.10%.
The same measure, in the same setting: the figure for `OC1(c2ccc3c(c2)CCC(c2ccccc2)N3)COC1` (stereo not drawn) [Example 71, 3-(2-phenyl-1,2,3,4-tetrahydroquinolin-6-yl)oxetan-3-ol] is 108.9%; for `c1ccc(C2CCc3cc(N4CCCCC4)ccc3N2)cc1` (stereo not drawn) [Example 72, 2-phenyl-6-(piperidin-1-yl)-1,2,3,4-tetrahydroquinoline] it is 110.6%; for `CC(C)(C)C(=O)Nc1ccc2c(c1)CCC(c1ccccc1)N2` (stereo not drawn) [Example 74, N-(2-phenyl-1,2,3,4-tetrahydroquinolin-6-yl)pivalamide] it is 85.08%.
Take `CS(=O)(=O)Nc1ccc2c(c1)CCC(c1ccccc1)N2` (stereo not drawn) [Example 75, N-(2-phenyl-1,2,3,4-tetrahydroquinolin-6-yl)methanesulfonamide]: the “Ferroptosis inhibition rate (%)” value is 110.6%.
For the molecule `NC(=O)Nc1ccc2c(c1)CCC(c1ccccc1)N2` (stereo not drawn) [Example 77, 1-(2-phenyl-1,2,3,4-tetrahydroquinolin-6-yl)urea], the “Ferroptosis inhibition rate (%)” value stood at 101.6%.
The same measure, in the same setting: the figure for `Clc1cccc2c1NC(c1ccccc1)CC2` (stereo not drawn) [Example 79, 8-chloro-2-phenyl-1,2,3,4-tetrahydroquinoline] is 104.4%; for `Fc1cccc2c1NC(c1ccccc1)CC2` (stereo not drawn) [Example 80, 8-fluoro-2-phenyl-1,2,3,4-tetrahydroquinoline] it is 103.9%; for `CC1(c2ccccc2)CCc2ccccc2N1` (stereo not drawn) [Example 91, 2-methyl-2-phenyl-1,2,3,4-tetrahydroquinoline] it is 105.2%.
Same read-out and setting: for `OCC1(c2ccccc2)CCc2ccccc2N1` (stereo not drawn) [Example 92, (2-phenyl-1,2,3,4-tetrahydroquinolin-2-yl)methanol] the value was 66.40%; for `COC(=O)C1(c2ccccc2)CCc2ccccc2N1` (stereo not drawn) [Example 93, methyl 2-phenyl-1,2,3,4-tetrahydroquinoline-2-carboxylate], 89.78%; for `COC(=O)CC1(c2ccccc2)CCc2ccccc2N1` (stereo not drawn) [Example 94, 2-(2-phenyl-1,2,3,4-tetrahydroquinolin-2-yl)methyl acetate], 93.68%.
Still for that read-out and setting: the figure for `O=C1Cc2cc(C3CCc4cc(Cl)ccc4N3)ccc2N1` (stereo not drawn) [Example 95, 5-(6-chloro-2,3,4,4-tetrahydroquinolin-2-yl)indolin-2-one] is 68.84%; for `Clc1ccc2c(c1)CCC(c1cn[nH]c1)N2` (stereo not drawn) [Example 96, 6-chloro-2-(1H-pyrazol-4-yl)-1,2,3,4-tetrahydroquinoline] it is 98.01%; for `Cc1ccc2c(c1)CCC(c1cn[nH]c1)N2` (stereo not drawn) [Example 97, 6-methyl-2-(1H-pyrazol-4-yl)-1,2,3,4-tetrahydroquinoline] it is 83.94%.
In the case of `Fc1ccc2c(c1)CCC(c1cn[nH]c1)N2` (stereo not drawn) [Example 98, 6-fluoro-2-(1H-pyrazol-4-yl)-1,2,3,4-tetrahydroquinoline], the “Ferroptosis inhibition rate (%)” value is recorded as 98.95%.
For `Cc1ccc2c(c1)CCC(c1ccc(S(N)(=O)=O)cc1)N2` (stereo not drawn) [Example 100, 4-(6-methyl-1,2,3,4-tetrahydroquinolin-2-yl)benzenesulfonamide], the “Ferroptosis inhibition rate (%)” value came to 103.5%.
Still for that read-out and setting: for `Cc1ccc2c(c1)CCC(c1ccc3c(c1)CCC(=O)N3)N2` (stereo not drawn) [Example 101, 6-methyl-1,2,3,3′,4,4′-hexahydro-[2,6′-biquinolin]-2′(1′H)-one] the value was 109.6%.
The same measure, in the same setting: the figure for `Cc1ccc2c(c1)CCC(c1ccoc1)N2` (stereo not drawn) [Example 102, 2-(furan-3-yl)-6-methyl-1,2,3,4-tetrahydroquinoline] is 77.96%.
With `Cc1ccc2c(c1)CCC(c1cscn1)N2` (stereo not drawn) [Example 103, 4-(6-methyl-1,2,3,4-tetrahydroquinolin-2-yl)thiazole], the “Ferroptosis inhibition rate (%)” value turned out to be 76.76%.
The same measure, in the same setting: the figure for `Cc1ccc2c(c1)CCC(c1cnoc1)N2` (stereo not drawn) [Example 104, 4-(6-methyl-1,2,3,4-tetrahydroquinolin-2-yl)isoxazole] is 64.65%; for `Cc1ccc2c(c1)CCC(c1ccc(S(N)(=O)=O)c(F)c1)N2` (stereo not drawn) [Example 113, 2-fluoro-4-(6-methyl-1,2,3,4-tetrahydroquinolin-2-yl)benzenesulfonamide] it is 97.54%; for `Cc1ccc2c(c1)CCC(c1ccc(NS(N)(=O)=O)cc1)N2` (stereo not drawn) [Example 114, N-(4-(6-methyl-1,2,3,4-tetrahydroquinolin-2-yl)phenyl)sulfamoylamine] it is 87.04%.
The same measure, in the same setting: for `O=C1NCc2cc(C3CCc4ccccc4N3)ccc21` (stereo not drawn) [Example 123, 5-(1,2,3,4-tetrahydroquinolin-2-yl)isoindolin-1-one] the value was 113.4%; for `O=C1NCc2cc(C3CCc4ccccc4N3)ccc21` (stereo not drawn) [Example 124, 5-(1,2,3,4-tetrahydroquinolin-2-yl)isoindolin-1-one], 106.3%; for `O=C1CCc2cc(C3CCc4ccccc4N3)ccc2N1` (stereo not drawn) [Example 125, 1,2,3,3′,4,4′-hexahydro-[2,6′-biquinolin]-2′(1′H)-one], 102.6%.
Still for that read-out and setting: the figure for `O=C1CCc2cc(C3CCc4ccccc4N3)ccc2N1` (stereo not drawn) [Example 126, 1,2,3,3′,4,4′-hexahydro-[2,6′-biquinolin]-2′(1′H)-one] is 97.29%; for `CC(C)(C)NC(=O)Nc1ccc2c(c1)CCC(c1ccccc1)N2` (stereo not drawn) [Example 127, 1-(tert-butyl)-3-(2-phenyl-1,2,3,4-tetrahydroquinolin-6-yl)urea] it is 87.93%.
In the case of `CC(C)(C)NC(=O)Nc1ccc2c(c1)CCC(c1ccccc1)N2` (stereo not drawn) [Example 128, 1-(tert-butyl)-3-(2-phenyl-1,2,3,4-tetrahydroquinolin-6-yl)urea], the “Ferroptosis inhibition rate (%)” value came to 91.83%.

The same assay, now with this note: evaluation concentration 50 μmol/L, Erastin 3 μmol/L, 24 hours.
`CC(C)(C)OC(=O)Nc1ccc2c(c1)CCC(c1ccccc1)N2` (stereo not drawn) [Example 63, tert-butyl (2-phenyl-1,2,3,4-tetrahydroquinolin-6-yl)carbamate]: the “Ferroptosis inhibition rate (%)” value is reported as 68.73%.
Still for that read-out and setting: for `CC(=O)Nc1ccc2c(c1)CCC(c1ccccc1)N2` (stereo not drawn) [Example 73, N-(2-phenyl-1,2,3,4-tetrahydroquinolin-6-yl)acetamide] the value was 88.18%.
The same measure, in the same setting: the figure for `CC(C)(C)NC(=O)Nc1ccc2c(c1)CCC(c1ccccc1)N2` (stereo not drawn) [Example 76, 1-(tert-butyl)-3-(2-phenyl-1,2,3,4-tetrahydroquinolin-6-yl)urea] is 85.43%; for `FC(F)(F)c1ccc2c(c1)CCC(c1ccccc1)N2` (stereo not drawn) [Example 84, 2-phenyl-6-(trifluoromethyl)-1,2,3,4-tetrahydroquinoline] it is 107.1%.
Regarding `Fc1cc(F)c2c(c1)CCC(c1ccccc1)N2` (stereo not drawn) [Example 86, 6,8-difluoro-2-phenyl-1,2,3,4-tetrahydroquinoline], the “Ferroptosis inhibition rate (%)” value came out at 98.80%.
Same read-out and setting: the figure for `CC(C)(C)NC(=O)Nc1ccc2c(c1)CCC(c1ccc(C(N)=O)cc1)N2` (stereo not drawn) [Example 87, 4-(6-(3-(tert-butyl)ureido)-1,2,3,4-tetrahydroquinolin-2-yl)benzamide] is 95.20%.
